Assay results: patent publication US20160355483A1, “COMPOUND BINDING TO PPARG BUT NOT ACTING AS PROMOTER AND PHARMACEUTICAL COMPOSITION FOR TREATING PPARG-RELATED DISEASES CONTAINING SAME AS ACTIVE INGREDIENT” (Hyundai Pharm Co., Ltd., priority 2014, published 2016)

What follows are molecules tested against T1, PPARG (peroxisome proliferator activated receptor-gamma), GST-PPARG-LBD (Homo sapiens, UniProt P37231) (assay: LanthaScreen TR-FRET PPARG Competitive Binding Assay). Settings: degree of binding activity.
T1 construct: 15 μL of 5 nM GST-PPARG-LBD and 5 nM Tb-GST-antibody were added; purchased Invitrogen PV4894
T1 sequence (P37231 238-503 limits assumed): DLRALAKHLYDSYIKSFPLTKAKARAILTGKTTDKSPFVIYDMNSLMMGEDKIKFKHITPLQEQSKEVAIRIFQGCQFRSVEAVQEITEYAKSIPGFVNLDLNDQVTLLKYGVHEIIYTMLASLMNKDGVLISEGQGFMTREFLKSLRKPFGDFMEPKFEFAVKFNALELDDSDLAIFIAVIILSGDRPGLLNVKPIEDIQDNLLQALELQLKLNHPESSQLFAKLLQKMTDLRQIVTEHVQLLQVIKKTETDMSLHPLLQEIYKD
Parameters: key: “+” indicates the degree of the binding activity, and as the number of “+” increases, the binding activity is stronger; ++: “+” indicates the degree of the binding activity, and as the number of “+” increases, the binding activity is stronger; +++: “+” indicates the degree of the binding activity, and as the number of “+” increases, the binding activity is stronger; ++++: “+” indicates the degree of the binding activity, and as the number of “+” increases, the binding activity is stronger
Procedure, shortened: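 GST-tagged human PPARG LBD in a TR-FRET competitive binding kit, 1 h at room temperature. Read-out is the 518/488 nm emission ratio (340 nm excitation); activity = 100% − compound ratio/vehicle ratio, compared with rosiglitazone.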
In the case of `C[C@H](NC(=O)c1ccc2c(c1)CCCN2Cc1cccc(-c2ccccc2C(=O)O)c1F)c1ccc([N+](=O)[O-])cc1` [Example 128, (S)-2′-fluoro-3′-((6-((1-(4-nitrophenyl)ethyl)carbamoyl)-3,4-dihydroquinoline-1(2H)-yl)methyl)-[1,1′-biphenyl]-2-caboxylic acid], the “Binding assay (1 μLM)” value is reported as “++”.
For `C[C@H](NC(=O)c1ccc2c(c1)CCCN2Cc1cccc(-c2ccccc2C(=O)O)c1F)c1ccc2ccccc2c1` [Example 129, (S)-2′-fluoro-3′-((6-((1-(naphthalene-2-yl)ethyl)carbamoyl)-3,4-dihydroquinoline-1(28)-yl)methyl)-[1,1′-biphenyl]-2-carboxylic acid], the “Binding assay (1 μLM)” value was “++++”.
For `Cc1ccc([C@H](C)NC(=O)c2ccc3c(c2)CCCN3Cc2cccc(-c3ccccc3C(=O)O)c2F)cc1F` [Example 130, (S)-2′-fluoro-3′-((6-((1-(3-fluoro-4-methylphenyl)ethyl)carbamoyl)-3,4-dihydroquinoline-1(2H)-yl)methyl)-[1,1′-biphenyl]-2-caboxylic acid], the “Binding assay (1 μLM)” value was “+++”.
For `C[C@H](NC(=O)c1ccc2c(c1)CCCN2Cc1cccc(-c2ccccc2C(N)=O)c1F)c1ccc2ccccc2c1` [Example 132, (S)-1-((2′-carbamoyl-2-fluoro-[1,1′-biphenyl]-3-yl)methyl)-N-(1-(naphthalene-2-yl)ethyl)-1,2,3,4-tetrahydroquinoline-6-carboxamide], the “Binding assay (1 μLM)” value was “++++”.
In the case of `Cc1ccc([C@H](C)NC(=O)c2ccc3c(c2)CCCN3Cc2cccc(-c3ccccc3C(N)=O)c2F)cc1F` [Example 133, (S)-1-((2′-carbamoyl-2-fluoro-[1,1′-biphenyl]-3-yl)methyl)-N-(1-(3-fluoro-4-methylphenyl)ethyl)-1,2,3,4-tetrahydroquinoline-6-carboxamide], the “Binding assay (1 μLM)” value is reported as “+++”.
In the case of `C[C@H](NC(=O)c1ccc2c(c1)CCCN2Cc1cc(-c2ccccc2C(=O)O)ccc1F)c1ccccc1` [Example 134, (S)-4′-fluoro-3′-((6-((1-phenylethyl)carbamoyl)-3,4-dihydroquinoline-1(2H)-yl)methyl)-[1,1′-biphenyl]-2-carboxylic acid], the “Binding assay (1 μLM)” value is reported as “++++”.
For `C[C@H](NC(=O)c1ccc2c(c1)CCCN2Cc1cc(-c2ccccc2C(N)=O)ccc1F)c1ccccc1` [Example 135, (S)-1-((2′-carbamoyl-4-fluoro-[1,1′-biphenyl]-3-yl)methyl)-N-(1-phenylethyl)-1,2,3,4-tetrahydroquinoline-6-carboxamide], the “Binding assay (1 μLM)” value was “+++”.
For `C[C@H](NC(=O)c1ccc2c(c1)CCCN2Cc1cc(-c2ccccc2C(=O)O)ccc1F)c1ccc([N+](=O)[O-])cc1` [Example 136, (S)-4′-fluoro-3′-((6-((1-(4-nitrophenyl)ethyl)carbamoyl)-3,4-dihydroquinoline-1(2H)-yl)methyl)-[1,1′-biphenyl]-2-caboxylic acid], the “Binding assay (1 μLM)” value was “+++”.
For `C[C@H](NC(=O)c1ccc2c(c1)CCCN2Cc1cc(-c2ccccc2C(=O)O)ccc1F)c1ccc2ccccc2c1` [Example 137, (S)-4′-fluoro-3′-((6-((1-(naphthalene-2-yl)ethyl)carbamoyl)-3,4-dihydroquinoline-1(2)-yl)methyl)-[1,1′-biphenyl]-2-carboxylic acid], the “Binding assay (1 μLM)” value was “++++”.
`Cc1ccc([C@H](C)NC(=O)c2ccc3c(c2)CCCN3Cc2cc(-c3ccccc3C(=O)O)ccc2F)cc1F` [Example 138, (S)-4′-fluoro-3′-((6-((1-(3-fluoro-4-methylphenyl)ethyl)carbamoyl)-3,4-dihydroquinoline-1(2H)-yl)methyl)-[1,1′-biphenyl]-2-caboxylic acid] was tested, and the “Binding assay (1 μLM)” value was “++++”.
In the case of `C[C@H](NC(=O)c1ccc2c(c1)CCCN2Cc1cc(-c2ccccc2C(N)=O)ccc1F)c1ccc2ccccc2c1` [Example 140, (S)-1-((2′-carbamoyl-4-fluoro-[1,1′-biphenyl]-3-yl)methyl)-N-(1-(naphthalene-2-yl)ethyl)-1,2,3,4-tetrahydroquinoline-6-carboxamide], the “Binding assay (1 μLM)” value is reported as “++++”.
`Cc1ccc([C@H](C)NC(=O)c2ccc3c(c2)CCCN3Cc2cc(-c3ccccc3C(N)=O)ccc2F)cc1F` [Example 141, (S)-1-((2′-carbamoyl-4-fluoro-[1,1′-biphenyl]-3-yl)methyl)-N-(1-(3-fluoro-4-methylphenyl)ethyl)-1,2,3,4-tetrahydroquinoline-6-carboxamide] was tested, and the “Binding assay (1 μLM)” value was “+++”.
In the case of `C[C@H](NC(=O)c1ccc2c(c1)OCCN2Cc1ccccc1-c1ccc(C(=O)O)cc1)c1ccccc1` [Example 142, (S)-2′-((7-((1-phenylethyl)carbamoyl)-2H-benzo[b][1,4]oxazine-4(3H)-yl)methyl)-[1,1′-biphenyl]-4-carboxylic acid], the “Binding assay (1 μLM)” value is reported as “++”.
`C[C@H](NC(=O)c1ccc2c(c1)OCCN2Cc1ccccc1-c1ccc(C(N)=O)cc1)c1ccccc1` [Example 143, (S)-4-((4′-carbamoyl-[1,1′-biphenyl]-2-yl)methyl)-N-(1-phenylethyl)-3,4-dihydro-2H-benzo[b][1,4]oxazine-7-carboxamide] was tested, and the “Binding assay (1 μLM)” value was “++”.
With `C[C@H](NC(=O)c1ccc2c(c1)OCCN2Cc1ccccc1-c1ccc(C(=O)O)cc1)c1ccc(C#N)cc1` [Example 144, (S)-2′-((7-((1-(4-cyanophenyl)ethyl)carbamoyl)-2H-benzo[b][1,4]oxazine-4(3H)-yl)methyl)-[1,1′-biphenyl]-4-carboxylic acid] the “Binding assay (1 μLM)” value was “+”.
For `Cc1ccc([C@H](C)NC(=O)c2ccc3c(c2)OCCN3Cc2ccccc2-c2ccc(C(=O)O)cc2)cc1F` [Example 145, (S)-2′-((7-((1-(3-fluoro-4-methylphenyl)ethyl)carbamoyl)-2H-benzo[b][1,4]oxazine-4(3H)-yl)methyl)-[1,1′-biphenyl]-4-carboxylic acid], the “Binding assay (1 μLM)” value was “++”.
In the case of `C[C@H](NC(=O)c1ccc2c(c1)OCCN2Cc1ccccc1-c1ccc(C(=O)O)cc1)c1ccc([N+](=O)[O-])cc1` [Example 146, (S)-2′-((7-((1-(4-nitrophenyl)ethyl)carbamoyl)-2H-benzo[b][1,4]oxazine-4 (3H)-yl)methyl)-[1,1′-biphenyl]-4-carboxylic acid], the “Binding assay (1 μLM)” value is reported as “+”.
In the case of `C[C@H](NC(=O)c1ccc2c(c1)OCCN2Cc1ccccc1-c1ccc(C(=O)O)cc1)c1ccc2ccccc2c1` [Example 147, (S)-2′-((7-((1-(naphthalene-2-yl)ethyl)carbamoyl)-2H-benzo[b][1,4]oxazine-4(3H)-yl)methyl)-[1,1′-biphenyl]-4-carboxylic acid], the “Binding assay (1 μLM)” value is reported as “+++”.
In the case of `Cc1ccc([C@H](C)NC(=O)c2ccc3c(c2)OCCN3Cc2ccccc2-c2ccc(C(N)=O)cc2)cc1F` [Example 148, (S)-4-((4′-carbamoyl-[1,1′-biphenyl]-2-yl)methyl)-N-(1-(3-fluoro-4-methylphenyl)ethyl)-3,4-dihydro-2H-benzo[b][1,4]oxazine-7-carboxamide], the “Binding assay (1 μLM)” value is reported as “++”.
`C[C@H](NC(=O)c1ccc2c(c1)OCCN2Cc1ccccc1-c1ccc(C(N)=O)cc1)c1ccc(C#N)cc1` [Example 149, (S)-4-((4′-carbamoyl-[1,1′-biphenyl]-2-yl)methyl)-N-(1-(4-cyanophenyl)ethyl)-3,4-dihydro-2H-benzo[b][1,4]oxazine-7-carboxamide] was tested, and the “Binding assay (1 μLM)” value was “+”.
In the case of `C[C@H](NC(=O)c1ccc2c(c1)OCCN2Cc1ccccc1-c1ccc(C(N)=O)cc1)c1ccc([N+](=O)[O-])cc1` [Example 150, (S)-4-((4′-carbamoyl-[1,1′-biphenyl]-2-yl)methyl)-N-(1-(4-nitrophenyl)ethyl)-3,4-dihydro-2H-benzo[b][1,4]oxazine-7-carboxamide], the “Binding assay (1 μLM)” value is reported as “++”.
`C[C@H](NC(=O)c1ccc2c(c1)OCCN2Cc1ccccc1-c1ccc(C(N)=O)cc1)c1ccc2ccccc2c1` [Example 151, (S)-4-((4′-carbamoyl-[1,1′-biphenyl]-2-yl)methyl)-N-(1-(naphthalene-2-yl)ethyl)-3,4-dihydro-2H-benzo[b][1,4]oxazine-7-carboxamide] was tested, and the “Binding assay (1 μLM)” value was “+++”.
In the case of `C[C@H](NC(=O)c1ccc2c(c1)CCCN2Cc1ccccc1-c1ccc(C(=O)O)cc1)c1ccccc1` [Example 152, (S)-2′-((6-((1-phenylethyl)carbamoyl)-3,4-dihydroquinoline-1 (2H)-yl)methyl)-[1,1′-biphenyl]-4-carboxylic acid], the “Binding assay (1 μLM)” value is reported as “++”.
`C[C@H](NC(=O)c1ccc2c(c1)CCCN2Cc1ccccc1-c1ccc(C(N)=O)cc1)c1ccccc1` [Example 153, (S)-1-((4′-carbamoyl-[1,1′-biphenyl]-2-yl)methyl)-N-(1-phenylethyl)-1,2,3,4-tetrahydroquinolin-6-carboxamide] was tested, and the “Binding assay (1 μLM)” value was “++”.
With `Cc1ccc([C@H](C)NC(=O)c2ccc3c(c2)CCCN3Cc2ccccc2-c2ccc(C(=O)O)cc2)cc1F` [Example 154, (S)-2′-((6-((1-(3-fluoro-4-methylphenyl)ethyl)carbamoyl)-3,4-dihydroquinoline-1(2H)-yl)methyl)-[1,1′-biphenyl]-4-carboxylic acid] the “Binding assay (1 μLM)” value was “+”.
